According to patent publication US5594006A, “Carbostyril derivatives as matrix metalloproteinases inhibitors” (Otsuka Pharmaceutical Co., Ltd., priority 1993, dated 1997):

What was measured:
Type IV collagenase = Type IV collagenase inhibiting activity (fluorescence labeled gelatin); assay type: biochemical, human; conditions: from HT-1080 cell; 6 hours at 37° C., pH 7.5
Method: (3) Measuring Method of Type IV Collagenase Inhibiting Activity
Inhibiting of type IV collagenase refined from the culture supernatant of human […] (HT-1080 cell) was measured by using fluorescence labeled gelatin, according to the method proposed by Haris et al. [Haris, E. D., and Krane, S. M., Biochim. Biophys. Acta., 258, 566-576 (1972)].
The enzyme was activated by incubating for 22 hours at 37° C. in 1 mM mercury (II) p-aminophenylacetate. The test compound was used by dissolving in dimethyl sulfoxide. The enzyme reaction was started by adding the activated enzyme in 50 mM TRIS-hydrochloric acid (pH 7.5), 10 mM CaCl2, 0.01% (w/v) "Bridge 35" (tradename, available from Wako Pure Chemical Industries, Ltd.), 0.1% (v/v) dimethyl sulfoxide solution containing the test compound and 0.1% (w/v) of fluorescence labeled gelatin as substrate. The reaction was conducted for 6 hours at 37° C., and stopped by adding 30% (w/v) trichloroacetic acid solution by 1/2 amount. After letting stand at 4° C. for 30 minutes, by centrifugal separation for 10 minutes at 10000 rpm, 4° C., the undigested substrate was precipitated. To 1 part by volume of the obtained supernatant, 50 parts by volume of 0.3M phosphate buffer (pH 8.5) was added, and the fluorescence intensity was measured at 520 nm (Em)/495 nm (Ex), and the undigested amount was quantitatively determined.
The enzyme inhibiting activity was expressed by the concentration (IC50) of the test compound wherein the enzyme activity of known amount was blocked till 50%.

Interstitial collagenase = biological target: T1, Interstitial collagenase (Homo sapiens, UniProt P03956); test: Interstitial collagenase inhibiting activity (fluorescence labeled collagen); assay type: biochemical; conditions: from human fibroblast cell (Detroit 551); 2 hours at 35° C., pH 7.5
T1 construct: endogenous in cells; host or cells: Detroit 551 (human fibroblasts), culture supernatant, purified
T1 sequence (P03956 100-469): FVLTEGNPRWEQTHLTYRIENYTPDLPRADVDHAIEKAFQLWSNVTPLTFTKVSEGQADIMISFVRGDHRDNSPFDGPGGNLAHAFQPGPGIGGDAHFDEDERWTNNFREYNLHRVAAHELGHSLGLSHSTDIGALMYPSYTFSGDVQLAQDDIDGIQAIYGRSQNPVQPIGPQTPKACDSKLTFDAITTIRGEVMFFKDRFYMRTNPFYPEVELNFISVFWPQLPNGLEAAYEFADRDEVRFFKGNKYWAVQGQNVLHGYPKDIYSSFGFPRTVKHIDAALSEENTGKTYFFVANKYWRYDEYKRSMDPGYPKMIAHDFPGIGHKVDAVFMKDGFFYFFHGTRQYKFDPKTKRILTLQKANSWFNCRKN
Method: (2) Measuring Method of Interstitial Collagenase Inhibiting Activity
Inhibiting of interstitial collagenase refined from the culture supernatant of human fibroblast cell (Detroit 551 cell) was measured by using fluorescence labeled collagen, according to the method proposed by Nagai et al. [Inflammation, 4 (2), 123 (1984)].
The enzyme was activated by incubating for 3 hours at 37° C. in 1 mM mercury (II) p-aminophenylacetate. The test compound was used by dissolving in dimethyl sulfoxide. The enzyme reaction was started by adding the activated enzyme in 50 mM TRIS-hydrochloric acid (pH 7.5), 0.2M NaCl, 5 mM CaCl2, 0.02% (w/v) NaN3, 2.5 mM acetic acid, and 0.1% (v/v) dimethyl sulfoxide solution containing the test compound and 0.025% (w/v) of fluorescence labeled collagen as substrate. The reaction was conducted for 2 hours at 35° C., and stopped by adding ice-chilled 80 mM O-phenanthroline, 50% (v/v) ethanol solution by 1/20 amount. To this, moreover, an equivalent volume of 50 mM TRIS-hydrochloric acid (pH 7.5), 0.2M NaCl, 5 mM CaCl2, 0.02% (w/v) NaN3 solution was added to incubate further for 1 hour at 35° C. to degenerate specifically only the digestion product, and the digestion product was extracted by adding 0.17M TRIS-hydrochloric acid (pH 9.5), 0.67M NaCl solution including an equivalent amount of 70% (v/v) ethanol, and afterwards, by centrifugal separation for 15 minutes at 3000 rpm, 4° C., the undigested substrate was precipitated. The fluorescence intensity of the obtained supernatant was measured at 520 nm (Em)/495 nm (Ex), and the decomposition volume was quantitatively determined.
(§1) The enzyme inhibiting activity was expressed by the concentration (IC50) of the test compound wherein the enzyme activity of known amount was inhibited till 50%.

Stromelysin = biological target: T2, Stromelysin (Mus musculus, UniProt P28862); test: Stromelysin inhibiting activity (fluorescence labeled casein); assay type: biochemical; conditions: from mouse colon cancer cell (Colon 26); 3 hours at 37° C., pH 7.5
T2 construct: endogenous in cells; host or cells: Colon 26 (mouse colon cancer cells), culture supernatant, purified
Method: (1) Measuring Method of Stromelysin Inhibiting Activity
Inhibiting of Stromelysin refined from the culture supernatant of mouse colon cancer cell (Colon 26 cell) was measured by using fluorescence labeled casein, according to the method proposed by Miyazaki et al. (J. Biochem., 108, 537-543, 1990), and S. S. Twining [Fed. Proc., 42, 1951 (1984)].
The enzyme was activated by incubating for 2 hours at 37° C. in 1 mM mercury (II) p-aminophenylacetate. The test compound was used by dissolving in dimethyl sulfoxide. The enzyme reaction was started by adding the activated enzyme in a solution of 50 mM TRIS-hydrochloric acid (pH 7.5), 10 mM CaCl2, and 0.1% (v/v) dimethyl sulfoxide containing the test compound and 0.25% (w/v) of fluorescence labeled casein as substrate. The reaction was conducted for 3 hours at 37° C., and stopped by adding an equivalent amount of 5% (w/v) trichloroacetic acid solution. Afterwards, by centrifugal separation for 15 minutes at 3000 rpm, 4° C., the undigested substrate was precipitated, and to 1 part by volume of the obtained supernatant, 4 parts by volume of 0.3M phosphate buffer (pH 8.5) was added, and the fluorescence intensity was measured at 520 nm (Em)/495 nm (Ex), and the decomposition volume was quantitatively determined.
as §1

[1] = system: Colon 26 PMF15 tumor cells; test: Lung metastasis of Colon 26 PMF15 tumor in mice after oral administration; assay type: in vivo, male CDF1 mice; conditions: Test I; for Number of lung metastastic nodules mean ± S.E.: day 28; for Ratio to control group: lung nodules
Method: Experiment was carried out according to a method of Motoyama et al. [Gan To Kagaku Ryoho (JAPAN), 21(8): pages 1209-1214, 1994]. That is, Colon 26 PMF15 tumor cells (5×10^5 /mouse) were inoculated into the left hind footpad of male CDF1 mice (one group comprising 7 mice). After 14 days from inoculation, the left hind-limb was cut from the upper part of the articulatio geniculum under pentobarbital anesthetization using a cautery knife to remove the primary tumor. After 28 days from inoculation,the lung was removed and the number of metastastic nodules on the surface thereof were measured, thereby taking it as an index of the effect. The test compound was orally administered one time a day until 27 days have passed since the day following the day when tumor cells were inoculated, excluding the day when the primary tumor was removed.

T2 sequence (P28862 100-477): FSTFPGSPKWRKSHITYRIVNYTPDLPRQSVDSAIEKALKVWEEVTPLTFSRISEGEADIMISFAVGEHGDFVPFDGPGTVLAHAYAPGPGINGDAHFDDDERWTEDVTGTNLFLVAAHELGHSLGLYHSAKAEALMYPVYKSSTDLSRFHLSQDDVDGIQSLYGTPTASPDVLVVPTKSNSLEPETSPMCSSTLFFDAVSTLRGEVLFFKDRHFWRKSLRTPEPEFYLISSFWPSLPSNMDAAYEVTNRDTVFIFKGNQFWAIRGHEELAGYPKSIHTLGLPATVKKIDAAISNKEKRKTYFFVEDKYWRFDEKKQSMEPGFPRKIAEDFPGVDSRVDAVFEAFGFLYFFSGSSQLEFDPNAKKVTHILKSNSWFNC

Compound | IC50 (Type IV collagenase) [nM] | IC50 (Interstitial collagenase) [nM] | IC50 (Stromelysin) [nM] | further results
CON1C(=O)[C@@H](NC(=O)[C@@H](CC(=O)NO)CC(C)C)Cc2ccccc21 [Test compound 3, 3S-[4-(N-hydroxyamino)-2R-isobutylsuccinyl]amino-1-methoxy-3,4-dihydrocarbostyril] | 530 | 690 | 1300 | Number of lung metastastic nodules mean ± S.E. ([1]; 25 mg/kg/day oral): 19.0 ± 3.7; Number of lung metastastic nodules mean ± S.E. ([1]; 50 mg/kg/day oral): 18.7 ± 6.0; Number of lung metastastic nodules mean ± S.E. ([1]; 100 mg/kg/day oral): 13.0 ± 5.2; Number of lung metastastic nodules mean ± S.E. ([1]; 200 mg/kg/day oral): 9.2 ± 2.8; Ratio to control group ([1]; 25 mg/kg/day oral): 90%; Ratio to control group ([1]; 50 mg/kg/day oral): 88%; Ratio to control group ([1]; 100 mg/kg/day oral): 61%; Ratio to control group ([1]; 200 mg/kg/day oral): 43%
3S- [4-(N-hydroxyamino)-2R-isobutyl-succinyl ]amino-1-isobutoxy-3,4-dihydrocarbostyril [Example 21] | 340 | – | – | –
COCOCCN1C(=O)[C@@H](NC(=O)[C@@H](CC(=O)NO)CC(C)C)Cc2ccccc21 [Test compound 19, 3S-[4-(N-hydroxyamino)-2R-isobutylsuccinyl]amino-1-methoxymethoxyethyl-3,4-dihydrocarbostyril] | 9800 | 140 | – | –
COc1ccc2c(c1)NC(=O)[C@@H](NC(=O)[C@@H](CC(=O)NO)CC(C)C)C2 [Test compound 2, 3S-[4-(N-hydroxyamino)-2R-isobutylsuccinyl]amino-7-methoxy-3,4-dihydrocarbostyril] | 510 | 450 | 490 | –
1-(4-carboxybenzyl)-3(R or S)-[4-(N-hydroxyamino)-2R-isobutylsuccinyl]amino-3,4-dihydrocarbostyril [Example 30] | 240 | – | – | –
CCCCC[C@H](CC(=O)NO)C(=O)N[C@H]1Cc2cc3c(cc2N(CC)C1=O)OCO3 [Test compound 29, 1-ethyl-3S-[4-(N-hydroxyamino)-2R-pentylsuccinyl]amino-6,7-methylenedioxy-3,4-dihydrocarbostyril] | 200 | 14 | – | –
3S-[4-(N-hydroxyamino)-2R-isobutyl-3S-methylsuccinyl]amino-1-(4-methoxybenzyl)-3,4dihydrocarbostyril [Example 31] | 1400 | – | – | –
CC(C)C[C@@H](C(=O)N[C@H]1Cc2ccccc2NC1=O)[C@H](CS)C(=O)NO [Test compound 5, 3S-[4-(N-hydroxyamino)-2R-isobutyl-3S-mercaptomethylsuccinyl]amino-3,4-dihydrocarbostyril] | 540 | 360 | 150 | –

Now from value to compound, other results behind:

IC50 (Type IV collagenase) [nM] | IC50 (Interstitial collagenase) [nM] | IC50 (Stromelysin) [nM] | Compound | further results
2200 | 110 | – | CC(C)C[C@H](CC(=O)NO)C(=O)N[C@H]1Cc2cc3c(cc2N(C)C1=O)OCO3 [Test compound 27, 3S-[4-(N-hydroxyamino)-2R-isobutylsuccinyl]amino-1-methyl-6,7-methylenedioxy-3,4-dihydrocarbostyril] | –
1700 | 210 | 570 | CC(C)C[C@H](CC(=O)NO)C(=O)N[C@H]1Cc2ccccc2NC1=O [Test compound 1, 3S-[4-(N-hydroxyamino)-2R-isobutylsuccinyl]amino-3,4-dihydrocarbostyril] | –
1900 | 2900 | 850 | CC(=O)SC[C@H](C(=O)NO)[C@@H](CC(C)C)C(=O)N[C@H]1Cc2ccccc2NC1=O [Test compound 4, 3S-[4-(N-hydroxyamino)-2R-isobutyl-3S-acetylthiomethylsuccinyl]amino-3,4-dihydrocarbostyril] | –
18 | – | 23 | CC(C)C[C@@H](C(=O)N[C@H]1Cc2ccccc2NC1=O)C(CN1C(=O)c2ccccc2C1=O)C(=O)NO (single isomer, unassigned) [Test compound 7, 3S-[4-(N-hydroxyamino)-2R-isobutyl-3(R or S)-phthalimidomethylsuccinyl]amino-3,4-dihydrocarbostyril] | –
340 | – | – | 3S- [4-(N-hydroxyamino)-2R-isobutyl-3S-methylsuccinyl]amino-3,4-dihydrocarbostyril [Example 17] | –
58 | 2.4 | 27 | CC(C)C[C@@H](C(=O)N[C@H]1Cc2ccccc2NC1=O)[C@H](CSc1cccs1)C(=O)NO [Test compound 6, 3S-[4-(N-hydroxyamino)-2R-isobutyl-3S-(2-thienylthiomethyl)succinyl]amino-3,4-dihydrocarbostyril] | –
